Test results as given in patent US5834521A, “Substituted dibenz (A F)azulenes and methods of preparation” (Ortho Pharmaceutical Corporation, priority 1996, dated 1998).

Target: T1, Progestin Receptor (Oryctolagus cuniculus, UniProt P06186)
T1 construct: The high speed supernatant fraction was used as the receptor preparation; from tissue; host or cells: uterus of New Zealand rabbits, 200,000×g supernatant (cytosol)
T1 sequence (P06186 1-930): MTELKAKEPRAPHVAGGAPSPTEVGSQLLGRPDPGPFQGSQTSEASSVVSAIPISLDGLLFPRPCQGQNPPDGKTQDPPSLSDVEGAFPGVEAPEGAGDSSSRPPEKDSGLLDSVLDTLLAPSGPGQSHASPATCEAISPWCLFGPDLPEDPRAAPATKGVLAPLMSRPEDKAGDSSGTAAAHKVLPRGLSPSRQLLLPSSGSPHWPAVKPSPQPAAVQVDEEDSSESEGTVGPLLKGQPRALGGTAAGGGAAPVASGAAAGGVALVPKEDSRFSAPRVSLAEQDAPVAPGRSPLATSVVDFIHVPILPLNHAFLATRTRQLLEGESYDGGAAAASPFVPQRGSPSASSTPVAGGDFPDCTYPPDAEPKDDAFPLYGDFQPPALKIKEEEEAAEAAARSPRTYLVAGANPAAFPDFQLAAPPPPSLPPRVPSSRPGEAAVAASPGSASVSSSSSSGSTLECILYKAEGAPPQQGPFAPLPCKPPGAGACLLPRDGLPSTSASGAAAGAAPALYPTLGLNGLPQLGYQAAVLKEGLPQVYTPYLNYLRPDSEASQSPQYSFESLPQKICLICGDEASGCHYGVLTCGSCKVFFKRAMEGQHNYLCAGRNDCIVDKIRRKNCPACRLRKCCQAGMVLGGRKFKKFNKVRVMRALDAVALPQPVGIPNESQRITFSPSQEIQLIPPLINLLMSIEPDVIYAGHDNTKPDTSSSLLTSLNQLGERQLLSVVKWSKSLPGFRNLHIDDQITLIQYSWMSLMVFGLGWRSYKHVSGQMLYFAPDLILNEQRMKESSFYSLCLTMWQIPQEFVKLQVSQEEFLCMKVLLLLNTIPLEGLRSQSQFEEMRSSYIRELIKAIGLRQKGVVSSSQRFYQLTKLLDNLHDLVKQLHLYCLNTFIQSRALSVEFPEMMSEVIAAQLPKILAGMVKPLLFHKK
Test: Progestin Receptor Binding (competitive binding, 3H-promegestone, rabbit uterus receptor preparation)
Parameters: species or system New Zealand rabbits
Details: 3H-promegestone displacement, 4° C., 18 h
Procedure: Progestin Receptor Binding
The procedure used was essentially that of J. L. McGuire, C.
Uteri from New Zealand rabbits (1.5 to 2.5 kg) were placed in a cold buffer A (0.01 mol Tris-HCl, pH 8.0, 0.001 mol EDTA, 0.25 mol sucrose). The uteri were minced, washed and homogenized in cold buffer A. The homogenate (2 g wet tissue/mL buffer) was centrifuged at 200,000×g for 1 h at 4° C. The high speed supernatant fraction was used as the receptor preparation.
A competitive binding assay was performed by mixing 3H-promegestone with the receptor preparation and adding a known amount of unlabeled compound. This mixture was incubated at 4° C. for 18 h. The compounds bound to the receptor were separated from those which were free in solution using dextran coated charcoal and the amount of isotope bound to the receptor was determined by scintillation counting. The extent of the compound's interaction with the receptor is measured as the percent reduction in the total isotope bound caused by the unlabeled test compound as compared to the control levels. The receptor screen consists of measuring the reduction in the total isotope bound caused by the unlabeled test compound at […] final concentrations.

| Molecule | IC50 [nM] |
| --- | --- |
| 4b,5,6,11,11a,12-Hexahydro-7-methoxy-6,11a-dimethyldibenz-[a,f]azulene [Compound 109] | 1250 |
| 6,11,11a,12-Tetrahydro-8-carboxy-9-methoxy-6,11a-dimethyldibenz[a,f]azulene [Compound 80] | 10000 |
| CC[C@]12Cc3ccccc3C1=C[C@@H](C)c1ccc(OC)cc1C2 (relative stereo) [Compound 17] | 160 |
| CC[C@]12Cc3cc(OC)ccc3C1=C[C@@H](C)c1ccc(OC)cc1C2 (relative stereo) [Compound 22] | 421 |
| COc1cc2c(cc1C(C)=O)[C@H](C)C=C1c3ccccc3C[C@]1(C)C2 (relative stereo) [Compound 44] | 190 |
| CCC[C@@]12Cc3cc(OC)ccc3CC[C@@H]1c1ccc(OC)cc1C2 (relative stereo) [Compound 71] | 439 |
| CCC[C@@]12Cc3cc(OC)ccc3CC[C@@H]1c1ccc(F)cc1C2 (relative stereo) [Compound 72] | 100 |
| CCC[C@]12Cc3cc(F)ccc3[C@H]1CCc1c(cccc1OC)C2 (relative stereo) [Compound 73] | 100 |
| CCC[C@]12Cc3ccccc3C1=C[C@@H](C)c1ccc(NC(C)=O)cc1C2 (relative stereo) [Compound 84] | 161 |
| CCC[C@]12Cc3ccccc3C1=C[C@@H](C)c1ccc(Br)cc1C2 (relative stereo) [Compound 92] | 139 |
| COc1ccc2c(c1)CC1(C)Cc3ccccc3C1=CC2 (stereo not shown) [Compound 2, 9-Methoxy-11a-methyl-6,11,11a,12-tetrahydrodibenz[a,f]azulene] | 239 |
| COc1ccc2c(c1)CC1(C)Cc3cc(OC)ccc3C1C(O)C2C (stereo not shown) [Compound 19] | 668 |
| CCCC12Cc3ccccc3C1=CCc1c(cccc1OC)C2 (stereo not shown) [Compound 29] | 15 |
| COc1ccc2c(c1)CC1(C)Cc3cc(OC)ccc3C1=CC2 (stereo not shown) [Compound 34, 6,11,11a,12-Tetrahydro-2,9-dimethoxy-11a-methyl-dibenz[a,f]azulene] | 425 |
| CCC12Cc3cc(OC)ccc3CC=C1c1ccc(OC)cc1C2 (stereo not shown) [Compound 37] | 2600 |
| CCCC12Cc3cc(O)ccc3CCC1c1ccccc1C2 (stereo not shown) [Compound 40] | 51 |
| CC[C@]12Cc3ccccc3C1C[C@@H](C)c1ccc(O)cc1C2 (stereo partly shown) [Compound 46] | 65 |
| CCCC12Cc3cc(OC)ccc3C(C)CC1c1ccccc1C2 (stereo not shown) [Compound 48] | 182 |
| CCOP(=O)(OCC)Oc1ccc2c(c1)CC1(C)Cc3cc(F)ccc3C1CC2C (stereo not shown) [Compound 49, 9-(2-Fluoro-6,11,11a,12-tetrahydro-6,11a-dimethyl)-dibenz[a,f]azulenyl diethyl phosphoric acid] | 72 |
| CCC12Cc3ccccc3C1=CCc1c(cccc1OC)C2 (stereo not shown) [Compound 52] | 68 |
| CCCC12Cc3cc(F)ccc3C1=CCc1c(cccc1OC)C2 (stereo not shown) [Compound 56] | 34 |
| CCCC12Cc3cc(OC)ccc3CC=C1c1ccc(F)cc1C2 (stereo not shown) [Compound 57] | 67 |
| CCCCC12Cc3cc(OC)ccc3CC=C1c1ccccc1C2 (stereo not shown) [Compound 67] | 185 |
| COc1ccc2c(c1)CC1(C)Cc3cc(OC)ccc3C1C(=O)C2 (stereo not shown) [Compound 75] | 555 |
| COc1ccc2c(c1[N+](=O)[O-])CC1(C)Cc3ccccc3C1C(O[N+](=O)[O-])C2C (stereo not shown) [Compound 82, 5-(6,11a-Dimethyl-9-methoxy-10-nitro-4b-5,6,11,11a,12-hexahydro)dibenz[a,f]azulenyl nitrate ester] | 99 |

Other lines, results leading:

| IC50 [nM] | Molecule |
| --- | --- |
| 40 | COc1ccc2c(c1)C[C@@]1(C)Cc3ccccc3C1=C[C@H]2C (relative stereo) [Compound 3] |
| 476 | COc1ccc2c(c1)C[C@@]1(C)Cc3ccccc3[C@H]1C[C@H]2C (relative stereo) [Compound 8] |
| 337 | COc1ccc2c(c1)C[C@@]1(C)Cc3ccccc3[C@H]1[C@H](O)[C@H]2C (relative stereo) [Compound 13, 6,11a-Dimethyl-5-hydroxy-9-methoxy-4b,5,6,11,11a,12-hexahydrodibenz[a,f]azulene (α--OH)] |
| 353 | COc1ccc2c(c1)C[C@@]1(C)Cc3ccccc3[C@@H]1C[C@H]2C (relative stereo) [Compound 16] |
| 25 | COc1ccc2c(c1)C[C@@]1(C)Cc3cc(F)ccc3[C@H]1C[C@H]2C (relative stereo) [Compound 47] |
| 118 | COc1cccc2c1[C@H](C)C[C@@H]1c3ccccc3C[C@]1(C)C2 (relative stereo) [Compound 54] |
| 1680 | COc1ccc2c(c1)C[C@@]1(C)Cc3ccccc3C1[C@@H](O)[C@H]2C (relative stereo) [Compound 64, 6,11a-Dimethyl-5-hydroxy-9-methoxy-4b,5,6,11,11a,12-hexahydrodibenz[a,f]azulene (β-OH)] |
| 1670 | COc1cc2c(c(OC)c1)[C@H](C)C[C@@H]1c3ccccc3C[C@]1(C)C2 (relative stereo) [Compound 86] |
| 729 | CC(=O)Oc1cc2c(c(OC(C)=O)c1)[C@H](C)C[C@@H]1c3ccccc3C[C@]1(C)C2 (relative stereo) [Compound 87] |
| 90 | CCC[C@]12Cc3ccccc3C1=C[C@@H](C)c1ccc(I)cc1C2 (relative stereo) [Compound 99] |
| 143 | COc1cccc2c1CC=C1c3ccccc3CC1(C)C2 (stereo not shown) [Compound 1, 7-Methoxy-11a-methyl-6,11,11a,12-tetrahydrodibenz[a,f]azulene] |
| 456 | C[C@@H]1CC2c3ccccc3C[C@]2(C)Cc2cc(O)ccc21 (stereo partly shown) [Compound 12] |
| 212 | COc1ccc2c(c1)CC1(C)Cc3ccccc3C1C(=O)C2C (stereo not shown) [Compound 14, 6,11a-Dimethyl-9-methoxy-5-oxo-4b,5,6,11,11a,12-hexahydrodibenz[a,f]azulene] |
| 419 | CC[C@]12Cc3ccccc3C1C[C@@H](C)c1ccc(OC)cc1C2 (stereo partly shown) [Compound 23] |
| 258 | CC1c2cc([N+](=O)[O-])c(O)cc2CC2(C)Cc3ccccc3C2C1O (stereo not shown) [Compound 24, 6,11a-Dimethyl-5,9-dihydroxy-8-nitro-4b,5,6,11,11a,12-hexahydrodibenz[a,f]azulene] |
| 121 | COc1cc2c(cc1[N+](=O)[O-])C(C)C(O)C1c3ccccc3CC1(C)C2 (stereo not shown) [Compound 25, 6,11a-Dimethyl-5-hydroxy-9-methoxy-8-nitro-4b,5,6,11,11a,12-hexahydrodibenz[a,f]azulene] |
| 32 | CC1CC2c3ccccc3CC2(C)Cc2ccccc21 (stereo not shown) [Compound 28, 6,11a,-Dimethyl-4b,5,6,11,11a,12-hexahydrodibenz[a,f]azulene] |
| 133 | CCCC12Cc3cc(OC)ccc3CCC1c1ccccc1C2 (stereo not shown) [Compound 35] |
| 42 | CCCC12Cc3cc(OC(C)=O)ccc3CCC1c1ccccc1C2 (stereo not shown) [Compound 50] |
| 410 | CC1CC2c3ccccc3CC2(C)Cc2cc(OCCN(C)C)ccc21 (stereo not shown) [Compound 51] |
| 541 | CC1CC2c3ccc(F)cc3CC2(C)Cc2cc(OCCN(C)C)ccc21 (stereo not shown) [Compound 55, 6,11a-Dimethyl-9-(N,N'-dimethylamino)ethoxy-2-fluoro-4b,5,6,11,11a,12-hexahydro-6,11a-dimethyldibenz[a,f]-azulene] |
| 365 | COc1cc2c(cc1C(C)=O)C(C)CC1c3ccccc3CC1(C)C2 (stereo not shown) [Compound 61, 8-Acetyl-4b,5,6,11,11a,12-hexahydro-6,11a-dimethyl-9-methoxydibenz[a,f]azulene] |
| 9 | COc1cc2c(cc1[N+](=O)[O-])C(C)CC1c3ccc(F)cc3CC1(C)C2 (stereo not shown) [Compound 65, 6,11a-Dimethyl-2-fluoro-8-nitro-9-methoxy-4b,5,6,11,11a,12-hexahydrodibenz[a,f]azulene 1/4 Hydrate] |
| 37 | CC1CC2c3ccc(F)cc3CC2(C)Cc2ccccc21 (stereo not shown) [Compound 69, 6,11a-Dimethyl-2-fluoro-4b,5,6,11,11a,12-hexahydrodibenz[a,f]azulene] |
